Tests used:
PKC epsilon = target: T1, PKC epsilon (Homo sapiens, UniProt Q02156); experiment: Biochemical assay for PKC epsilon (fluorescence polarization, Protein Kinase C Assay Kit, Red); details: compounds of Formula XIV, Table 3; read-out: IC50 μM PKCε
T1 construct: purchased Invitrogen P2282
T1 sequence (Q02156 1-737): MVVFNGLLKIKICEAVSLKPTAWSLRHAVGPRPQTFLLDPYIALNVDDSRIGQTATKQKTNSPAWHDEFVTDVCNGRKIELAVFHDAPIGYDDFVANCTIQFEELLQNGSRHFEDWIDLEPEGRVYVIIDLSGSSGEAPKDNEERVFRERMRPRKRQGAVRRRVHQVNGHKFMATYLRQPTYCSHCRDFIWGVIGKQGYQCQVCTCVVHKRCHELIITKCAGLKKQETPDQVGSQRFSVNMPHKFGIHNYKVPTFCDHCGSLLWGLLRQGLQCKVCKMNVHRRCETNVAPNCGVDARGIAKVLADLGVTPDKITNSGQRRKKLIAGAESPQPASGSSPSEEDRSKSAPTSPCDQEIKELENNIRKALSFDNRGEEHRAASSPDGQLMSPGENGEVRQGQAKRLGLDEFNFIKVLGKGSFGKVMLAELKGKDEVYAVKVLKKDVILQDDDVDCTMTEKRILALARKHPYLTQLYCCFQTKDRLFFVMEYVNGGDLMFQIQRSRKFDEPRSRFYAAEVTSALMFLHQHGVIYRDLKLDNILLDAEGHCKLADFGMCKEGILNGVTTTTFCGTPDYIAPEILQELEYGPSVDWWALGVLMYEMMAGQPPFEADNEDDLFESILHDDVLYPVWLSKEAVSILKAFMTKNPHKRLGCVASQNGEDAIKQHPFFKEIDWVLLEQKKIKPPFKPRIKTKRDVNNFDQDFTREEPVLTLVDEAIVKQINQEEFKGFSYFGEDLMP
Summary of the method: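 PKC epsilon at 10 ng/ml final was preincubated 30 min at room temperature with compound in HEPES pH 7.4 with DTT and Triton X-100. ATP/protein substrate was then added in buffer with MgCl2 and CaCl2 for 80 min. The reaction was stopped with EDTA, phosphorylation was detected by fluorescence polarization with rhodamine tracer and anti-phosphoserine antibody, and IC50 values came from curve fits.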

human ROCKα/ROCKII mix = target: T2, human ROCKα/ROCKII mix (Homo sapiens, UniProt O75116); experiment: Biochemical assay for ROCK (fluorescence polarization, ROCK IMAP Kit); details: compounds of Formula XIV, Table 3
T2 construct: purchased Upstate Biotechnology 14-451
T2 sequence (O75116 11-552 limits assumed): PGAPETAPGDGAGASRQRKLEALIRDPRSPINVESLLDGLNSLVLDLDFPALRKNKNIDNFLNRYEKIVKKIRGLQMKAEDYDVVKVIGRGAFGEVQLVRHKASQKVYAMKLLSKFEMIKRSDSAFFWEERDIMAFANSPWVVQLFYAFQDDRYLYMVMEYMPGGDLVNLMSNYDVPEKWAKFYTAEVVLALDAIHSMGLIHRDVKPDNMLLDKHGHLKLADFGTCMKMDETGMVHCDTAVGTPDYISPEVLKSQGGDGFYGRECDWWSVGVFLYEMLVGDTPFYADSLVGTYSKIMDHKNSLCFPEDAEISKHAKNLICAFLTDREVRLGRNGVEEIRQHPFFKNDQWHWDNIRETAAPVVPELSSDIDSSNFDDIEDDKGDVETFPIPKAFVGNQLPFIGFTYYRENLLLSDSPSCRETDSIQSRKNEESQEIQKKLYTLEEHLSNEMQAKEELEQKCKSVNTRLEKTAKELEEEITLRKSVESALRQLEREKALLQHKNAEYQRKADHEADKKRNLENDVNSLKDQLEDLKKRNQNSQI

| IC50 (PKC epsilon) | IC50 (human ROCKα/ROCKII mix) | SMILES |
| --- | --- | --- |
| 0.5 to 5 µM | 0.05 to 0.5 µM | NC(CC(=O)NCc1ccc(Cl)cc1Cl)c1ccc(C(=O)Nc2ccncc2)cc1 (stereo not drawn) [Compound 252, 4-[1-Amino-2-(2,4-dichloro-benzylcarbamoyl)-ethyl]-N-pyridin-4-yl-benzamide] |
| 0.05 to 0.5 µM | 0.05 to 0.5 µM | NC(CC(=O)NCc1cccc(Cl)c1Cl)c1ccc(C(=O)Nc2ccncc2)cc1 (stereo not drawn) [Compound 253, 4-[1-Amino-2-(2,3-dichloro-benzylcarbamoyl)-ethyl]-N-pyridin-4-yl-benzamide] |
| 0.5 to 5 µM | 0.05 to 0.5 µM | NC(CC(=O)NC(c1ccccc1)c1ccc(Cl)cc1)c1ccc(C(=O)Nc2ccncc2)cc1 (stereo not drawn) [Compound 255, 4-(1-Amino-2-{[(4-chloro-phenyl)-phenyl-methyl]-carbamoyl}-ethyl)-N-pyridin-4-yl-benzamide] |
| 0.5 to 5 µM | 0.05 to 0.5 µM | NC(CC(=O)NCc1ccccc1F)c1ccc(C(=O)Nc2ccncc2)cc1 (stereo not drawn) [Compound 256, 4-[1-Amino-2-(2-fluoro-benzylcarbamoyl)-ethyl]-N-pyridin-4-yl-benzamide] |
| 0.5 to 5 µM | 0.05 to 0.5 µM | NC(CC(=O)NCc1cccc(F)c1)c1ccc(C(=O)Nc2ccncc2)cc1 (stereo not drawn) [Compound 257, 4-[1-Amino-2-(3-fluoro-benzylcarbamoyl)-ethyl]-N-pyridin-4-yl-benzamide] |
| 0.05 to 0.5 µM | 0.05 to 0.5 µM | NC(CC(=O)NCc1ccc(F)cc1)c1ccc(C(=O)Nc2ccncc2)cc1 (stereo not drawn) [Compound 258, 4-[1-Amino-2-(4-fluoro-benzylcarbamoyl)-ethyl]-N-pyridin-4-yl-benzamide] |
| 0.5 to 5 µM | 0.05 to 0.5 µM | NC(CC(=O)NCc1ccccc1Br)c1ccc(C(=O)Nc2ccncc2)cc1 (stereo not drawn) [Compound 259, 4-[1-Amino-2-(2-bromo-benzylcarbamoyl)-ethyl]-N-pyridin-4-yl-benzamide] |
| 0.5 to 5 µM | 0.05 to 0.5 µM | NC(CC(=O)NCc1cccc(Br)c1)c1ccc(C(=O)Nc2ccncc2)cc1 (stereo not drawn) [Compound 260, 4-[1-Amino-2-(3-bromo-benzylcarbamoyl)-ethyl]-N-pyridin-4-yl-benzamide] |
| 0.5 to 5 µM | 0.05 to 0.5 µM | NC(CC(=O)NCc1ccc(F)cc1Cl)c1ccc(C(=O)Nc2ccncc2)cc1 (stereo not drawn) [Compound 261, 4-[1-Amino-2-(2-chloro-4-fluoro-benzylcarbamoyl)-ethyl]-N-pyridin-4-yl-benzamide] |
| 0.5 to 5 µM | 0.05 to 0.5 µM | NC(CC(=O)NCc1ccc(Br)cc1F)c1ccc(C(=O)Nc2ccncc2)cc1 (stereo not drawn) [Compound 262, 4-[1-Amino-2-(4-bromo-2-fluoro-benzylcarbamoyl)-ethyl]-N-pyridin-4-yl-benzamide] |
| 0.5 to 5 µM | 0.05 to 0.5 µM | NC(CC(=O)NCc1ccccc1C(F)(F)F)c1ccc(C(=O)Nc2ccncc2)cc1 (stereo not drawn) [Compound 263, 4-[1-Amino-2-(2-trifluoromethyl-benzylcarbamoyl)-ethyl]-N-pyridin-4-yl-benzamide] |
| 0.5 to 5 µM | 0.05 to 0.5 µM | NC(CC(=O)NCc1cccc(C(F)(F)F)c1)c1ccc(C(=O)Nc2ccncc2)cc1 (stereo not drawn) [Compound 264, 4-[1-Amino-2-(3-trifluoromethyl-benzylcarbamoyl)-ethyl]-N-pyridin-4-yl-benzamide] |
| 0.5 to 5 µM | 0.05 to 0.5 µM | NC(CC(=O)NCc1ccc(C(F)(F)F)cc1)c1ccc(C(=O)Nc2ccncc2)cc1 (stereo not drawn) [Compound 265, 4-[1-Amino-2-(4-trifluoromethyl-benzylcarbamoyl)-ethyl]-N-pyridin-4-yl-benzamide] |
| 0.5 to 5 µM | 0.05 to 0.5 µM | NC(CC(=O)NCc1ccc(F)c(C(F)(F)F)c1)c1ccc(C(=O)Nc2ccncc2)cc1 (stereo not drawn) [Compound 266, 4-[1-Amino-2-(4-fluoro-3-trifluoromethyl-benzylcarbamoyl)-ethyl]-N-pyridin-4-yl-benzamide] |
| 0.5 to 5 µM | 0.05 to 0.5 µM | NC(CC(=O)NCc1ccc(C(F)(F)F)c(F)c1)c1ccc(C(=O)Nc2ccncc2)cc1 (stereo not drawn) [Compound 267, 4-[1-Amino-2-(3-fluoro-4-trifluoromethyl-benzylcarbamoyl)-ethyl]-N-pyridin-4-yl-benzamide] |

Reference: patent US20100168102A9, “Amide Derivatives as Kinase Inhibitors” (Devgen NV, priority 2005, published 2010)
